Experiment: Area under the curve determinations of plasma levels in rats (rrAUC)
Format: in vivo
Details: rapid rat AUC of the drug (parent) in plasma; oral 10 mg/kg, fasted rats, blood 0.5-6 h post-dosing
Procedure: To gain insight into the pharmacokinetic properties of the compounds of formula (I), plasma levels of the compounds in rats were determined according to the protocol described in Korfmacher, W. A,; Cox, K. A.; Ng, K. J.; Veals, J.; Hsieh, Y.; Wainhaus, S.; Broske, L; Prelusky, D.; Nomeir, A.; White, R. E. Rapid Commun. Mass Spectrorn, 2001, 15, 335. Briefly, rats, after an overnight fast, were dosed orally with the test compound at a dose of 10 mg/kg in a 5 mL/kg dose volume. Blood was collected at 0.5, 1, 2, 3, 4, and 6 h post-dosing. Mass spectrometry using high performance liquid chromatography was used to identify and measure the concentrations of the test compounds in the plasma at the various time points. The parent ion of each test compound was used to identify and quantitate the compounds in plasma.

Compound: COCN1C(=O)N[C@@](CN2Cc3ccc(OC)cc3C2=O)(c2cc3cnccc3o2)C1=O [Compound 52]
- PK (rrAUC) parent: 1072 nM·h

Compound: COc1ccc2c(c1F)C(=O)N(C[C@@]1(c3cc4cc5c(c(F)c4o3)C(=O)NC5)NC(=O)N(COCc3ccccc3)C1=O)C2 [Compound 57]
- PK (rrAUC) parent: 2244 nM·h

Compound: CCCC(=O)OCN1C(=O)N(C(=O)CCC)[C@@](CN2Cc3ccc(OC)cc3C2=O)(c2cc3cnccc3o2)C1=O [Compound 82]
- PK (rrAUC) parent: 783 nM·h

Compound: CCOC(=O)N(C)CCOC(=O)OCN1C(=O)N[C@@](CN2Cc3ccc(OC)cc3C2=O)(c2cc3cnccc3o2)C1=O [Compound 63.5]
- PK (rrAUC) parent: 0 nM·h

Compound: COCCOCCOCCN1C(=O)N[C@@](CN2Cc3ccc(OC)cc3C2=O)(c2cc3cnccc3o2)C1=O [Compound 49]
- PK (rrAUC) parent: 88 nM·h

Compound: COc1ccc2c(c1)C(=O)N(C[C@@]1(c3cc4cnccc4o3)NC(=O)N(Cc3cccnc3)C1=O)C2 [Compound 48.1]
- PK (rrAUC) parent: 0 nM·h

Compound: COc1ccc2c(c1)C(=O)N(C[C@@]1(c3cc4cnccc4o3)NC(=O)N(COC(=O)OC(C)(C)C)C1=O)C2 [Compound 63]
- PK (rrAUC) parent: 0 nM·h

Compound: COc1ccc2c(c1)C(=O)N(C[C@@]1(c3cc4cnccc4o3)NC(=O)N(COC(=O)c3ccccc3)C1=O)C2 [Compound 66]
- PK (rrAUC) parent: 1861 nM·h

Compound: COc1ccc2c(c1)C(=O)N(C[C@]1(c3cc4cnccc4o3)C(=O)N(C(C)OC(=O)OC3COCOC3)C(=O)N1C(=O)OC1COCOC1)C2 (stereo partly drawn) [Compound 88]
- PK (rrAUC) parent: 0 nM·h

Compound: COCN1C(=O)N[C@@](CN2Cc3ccc(OC)cc3C2=O)(c2cc3ncccc3o2)C1=O [Compound 58]
- PK (rrAUC) parent: 2125 nM·h

Compound: COCN1C(=O)N[C@@](CN2Cc3ccc(OC)c(F)c3C2=O)(c2cc3cc4c(c(F)c3o2)C(=O)NC4)C1=O [Compound 56]
- PK (rrAUC) parent: 0 nM·h

Compound: COc1ccc2c(c1)C(=O)N(C[C@@]1(c3cc4cnccc4o3)NC(=O)N(C(=O)OC3COCOC3)C1=O)C2 [Compound 77]
- PK (rrAUC) parent: 0 nM·h

Compound: CCOC(=O)CN1C(=O)N[C@@](CN2Cc3ccc(OC)cc3C2=O)(c2cc3cnccc3o2)C1=O [Compound 58.2]
- PK (rrAUC) parent: 0 nM·h

Compound: COc1ccc2c(c1F)C(=O)N(C[C@@]1(c3cc4cc5c(c(F)c4o3)C(=O)NC5)NC(=O)N(COC(=O)C(C)(C)C)C1=O)C2 [Compound 7]
- PK (rrAUC) parent: 1898 nM·h

Compound: CCOCN1C(=O)N[C@@](CN2Cc3ccc(OC)cc3C2=O)(c2cc3cnccc3o2)C1=O [Compound 53]
- PK (rrAUC) parent: 5183 nM·h

Compound: COc1ccc2c(c1)C(=O)N(C[C@@]1(c3cc4cnccc4o3)NC(=O)N(COC(=O)N(C)C)C1=O)C2 [Compound 69]
- PK (rrAUC) parent: 13539 nM·h

Compound: COc1ccc2c(c1)C(=O)N(C[C@@]1(c3cc4ncccc4o3)NC(=O)N(C)C1=O)C2 [Compound 45]
- PK (rrAUC) parent: 947 nM·h

Compound: COc1ccc2c(c1)C(=O)N(C[C@]1(c3cc4cnccc4o3)C(=O)N(COC(=O)C3CCCCC3)C(=O)N1C(=O)C1CCCCC1)C2 [Compound 87]
- PK (rrAUC) parent: 0 nM·h

Compound: COc1ccc2c(c1F)C(=O)N(C[C@@]1(c3cc4cc5c(c(F)c4o3)C(=O)NC5)NC(=O)N(C3OC(=O)c4ccccc43)C1=O)C2 (stereo partly drawn) [Compound 75]
- PK (rrAUC) parent: 189 nM·h

Compound: CCN1C(=O)N[C@@](CN2Cc3ccc(OC)cc3C2=O)(c2cc3ncccc3o2)C1=O [Compound 46]
- PK (rrAUC) parent: 868 nM·h

Compound: COc1ccc2c(c1)C(=O)N(C[C@]1(c3cc4cnccc4o3)C(=O)N(COC(=O)c3ccccc3)C(=O)N1C(=O)c1ccccc1)C2 [Compound 84]
- PK (rrAUC) parent: 126 nM·h

Compound: COc1ccc2c(c1F)C(=O)N(C[C@@]1(c3cc4c5c(ccc4o3)CNC5=O)NC(=O)N(COC(=O)C(C)(C)C)C1=O)C2 [Compound 8]
- PK (rrAUC) parent: 2193 nM·h

Compound: COc1ccc2c(c1)C(=O)N(C[C@@]1(c3cc4nc(N5C[C@@H](O)CC5=O)ccc4o3)NC(=O)N(COC(=O)C(C)(C)C)C1=O)C2 [Compound 23]
- PK (rrAUC) parent: 60895 nM·h

Compound: CCCCCCCCOCN1C(=O)N[C@@](CN2Cc3ccc(OC)cc3C2=O)(c2cc3cnccc3o2)C1=O [Compound 54]
- PK (rrAUC) parent: 571 nM·h

Source: patent publication US8859529B2, “Compounds for the treatment of inflammatory disorders” (Merck Sharp & Dohme Corp., priority 2008, dated 2014)
